Source: paper PMC12775434, “Ultra-large virtual screening unveils potent agonists of the neuromodulatory orphan receptor GPR139” (Nature Communications, 2025)
Values after ≈ are worked out from the molar mass of the structure shown.

Legend:
Kinetic solubility = type: physicochemical; details: aqueous buffer, kinetic from dmso stock; 100 mM potassium phosphate buffer, 37 °C
Procedure: Test compound was added to 100 mM potassium phosphate buffer and incubated at 37 °C for at least 20 h in a heater-shaker. After incubation, the samples were centrifuged at 3000 × g at 37 °C for 30 min to pellet insoluble material and an aliquot of the supernatant was taken for analysis. After dilution of the sample, the concentration of dissolved compound was quantified by liquid chromatography coupled to triple quadrupole mass spectrometry (LC-MS/MS).

GPR139 = target: T1, GPR139 (Homo sapiens, UniProt Q6DWJ6); assay: Signaling pathway panel at GPR139 (Gi2, Gi3, GoA, Gq, G12, Ca2+, arrestin-3), HEK293A; type: cell-based; parameters: expressed in transfected cells; host or cells: HEK293A (transient, Lipofectamine 2000); details: for fold more potent than the R-enantiomer: across individual signaling pathways
T1 sequence (Q6DWJ6 1-353): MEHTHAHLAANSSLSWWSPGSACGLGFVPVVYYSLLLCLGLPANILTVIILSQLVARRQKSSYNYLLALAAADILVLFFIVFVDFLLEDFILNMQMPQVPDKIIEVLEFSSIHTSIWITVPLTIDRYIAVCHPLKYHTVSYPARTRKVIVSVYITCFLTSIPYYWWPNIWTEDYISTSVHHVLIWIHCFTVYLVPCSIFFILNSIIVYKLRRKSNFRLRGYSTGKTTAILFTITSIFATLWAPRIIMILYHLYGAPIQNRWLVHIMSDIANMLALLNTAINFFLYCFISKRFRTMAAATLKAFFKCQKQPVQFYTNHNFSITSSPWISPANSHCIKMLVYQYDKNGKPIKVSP
Procedure: We evaluated the signaling pathways activated by the potent agonist 1.1 and JNJ-63533054 compounds through GPR139. […] As all our screens of analogs were performed with racemic mixtures, we synthesized compound 1.1 as pure S- and R-enantiomer (1.1(S) and 1.1(R), respectively) along with JNJ-63533054 (JNJ(S)) and its R-enantiomer (JNJ(R)). Detailed synthetic procedures are described in the Supplementary Methods. We then characterized these four compounds in assays measuring the activation of Gi2, Gi3, GoA, Gq, and G12 proteins, intracellular calcium mobilization, and arrestin-3 recruitment. G protein activation was measured using a BRET-based Gα-specific G protein dissociation assay[57] and arrestin-3 recruitment was measured with an enhanced bystander BRET assay[58] (Fig. 5a).
HEK293A cells were reverse-transfected with human GPR139 for Ca^2+ mobilization experiments with transiently expressed GPR139. The construct has been generated and described previously by Nøhr et al.. DNA and Lipofectamine 2000 Transfection Reagent (ThermoFisher #11668019) were separately diluted in Opti-MEM I Reduced Serum Medium (ThermoFisher #31985070). 10 ng GPR139 DNA and 250 nL Lipofectamine were used for each well. The dilutions were incubated at room temperature for 5 min. Then, DNA and Lipofectamine dilutions were combined in 1:1 volumetric ratio and incubated at room temperature for 20 min to obtain the transfection solutions. 10 µL transfection solution and 20,000 cells in 100 µL growth medium were distributed in each well of black clear bottom tissue culture treated 96-well plates that were previously coated with poly-D-lysine (Sigma-Aldrich #P0899). Cells were grown for approximately 48 h. A calcium mobilization assay was performed as described.
The G protein dissociation assay developed by the lab of Kirill A. Martemyanov was used to measure the coupling of multiple G proteins by GPR139[57]. The assay was performed as described previously with minor modifications. […] Simultaneous dual emission was measured at 535 nm and 475 nm on LUMIstar Omega Microplate Reader (BMG Labtech) at room temperature. […]

Row | solubility kinetic (Kinetic solubility) | fold more potent than the R-enantiomer (GPR139) | EC50 (GPR139; range over pathways, read-out: EC50 for stimulating the individual signaling pathways at GPR139) | Structure (SMILES)
1 | 13 µM (≈ 4.26 µg/mL) | 13- to 63 fold | 13 to 200 nM | Cc1cscc1-c1nc(CC(=O)N[C@@H](C)c2ccccc2)no1 [1.1(S)]
2 | 24 µM (≈ 7.5 µg/mL) |  |  | Cc1nocc1-c1nc(CC(=O)NC(C)c2ccccc2)no1 (centres unmarked) [Compound 1.5, CC(C1=CC=CC=C1)NC(CC2=NOC(C3=CON=C3C)=N2)=O]
3 |  | 40- to 158 fold |  | CC(NC(=O)CNC(=O)c1cccc(Cl)c1)c1ccccc1 (centres unmarked) [JNJ-63533054, reference compound]
